Measurements: US9079866B2, “Flap modulators” (JANSSEN PHARMACEUTICA NV, priority 2013, dated 2015)
Counter-ions that a name gives are not always drawn. Like-named read-outs stand apart in the source and are kept apart here.

Tests used:
[1] = test system: leukotriene pathway in human whole blood (LTB4 levels); test: Human whole blood assay (A23187-stimulated LTB4); assay type: cell-based; conditions: Homo sapiens, read-out: LTB4 IC50 1:1
Method in brief: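 Heparinised human whole blood, diluted 1:1 in RPMI, was pre-incubated with test compounds for 15 min at 37° Celsius, then stimulated with A23187 (7 μg/mL) for 30 min at 37° Celsius. Plasma LTB4 was measured by immunoassay kit; IC50 from 4-parameter fit; single replicate, at least one healthy donor.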

human FLAP = human FLAP (Homo sapiens (Human), UniProt P20292); test: FLAP binding assay (HTRF format)
Method in brief: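 Samples were run in duplicate on each of two plates and the plate results averaged. Read-out is the HTRF signal ratio.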

[2] = human whole blood diluted 1:1 in RPMI, A23187-stimulated LTB4
[3] = human FLAP wild type, HTRF format, average of two plates, duplicates

Chain of human FLAP (P20292 whole entry): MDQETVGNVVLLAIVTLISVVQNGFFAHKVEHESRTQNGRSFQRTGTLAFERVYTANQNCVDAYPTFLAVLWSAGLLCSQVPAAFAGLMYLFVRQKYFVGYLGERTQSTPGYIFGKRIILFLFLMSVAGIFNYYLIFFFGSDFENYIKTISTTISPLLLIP

Row | SMILES | IC50 [1, 2] | Ki (human FLAP; [3]) | Ki (human FLAP; read-out: FLAP Binding wild type HTRF Ki) | IC50 [1]
1 | Nc1ncc(-c2ccc(-c3ccccc3S(=O)(=O)CCCn3c(=O)[nH]c4ccccc43)cc2F)cn1 [Example 318, 1-(3-((4′-(2-Aminopyrimidin-5-yl)-3′-fluoro-[1,1′-biphenyl]-2-yl)sulfonyl)propyl)-1H-benzo[d]imidazol-2(3H)-one] | 2000 nM | 689 nM | – | –
2 | Nc1ncc(-c2ccc(-c3ccccc3S(=O)(=O)CCCS(=O)(=O)C3CCCCC3)cc2F)cn1 [Example 319, 5-(2′-{[3-(Cyclohexylsulfonyl)propyl]sulfonyl}-3-fluorobiphenyl-4-yl)pyrimidin-2-amine] | 3260 nM | 204 nM | – | –
3 | Cn1c(S(=O)(=O)c2ccccc2-c2ccc(-c3cnc(N)nc3)c(F)c2)nc2ccccc21 [Example 320, 5-{3-Fluoro-2′-[(1-methyl-1H-benzimidazol-2-yl)sulfonyl]biphenyl-4-yl}pyrimidin-2-amine] | 1080 nM | 129 nM | – | –
4 | Nc1ncc(-c2ccc(-c3ccc(C(F)(F)F)cc3S(N)(=O)=O)cc2F)cn1 [Example 322, 4′-(2-Aminopyrimidin-5-yl)-3′-fluoro-4-(trifluoromethyl)biphenyl-2-sulfonamide] | 138 nM | 32 nM | – | –
5 | CS(=O)(=O)c1cc(C(F)(F)F)ccc1-c1ccc(-c2cnc(N)nc2)c(F)c1 [Example 323, 5-[3-Fluoro-2′-(methylsulfonyl)-4′-(trifluoromethyl)biphenyl-4-yl]pyrimidin-2-amine] | 6640 nM | 770 nM | – | –
6 | Nc1ncc(-c2ccc(-c3ccc(C(F)(F)F)cc3S(=O)(=O)N3CCNC(=O)C3)cc2F)cn1 [Example 324, 4-{[4′-(2-Aminopyrimidin-5-yl)-3′-fluoro-4-(trifluoromethyl)biphenyl-2-yl]sulfonyl}piperazin-2-one] | 101 nM | 19 nM | – | –
7 | CNS(=O)(=O)c1cc(C(F)(F)F)ccc1-c1ccc(-c2cnc(N)nc2)c(F)c1 [Example 325, 4′-(2-Aminopyrimidin-5-yl)-3′-fluoro-N-methyl-4-(trifluoromethyl)biphenyl-2-sulfonamide] | 91 nM | 4 nM | – | –
8 | Nc1ncc(-c2ccc(-c3ccc(C(F)(F)F)cc3S(=O)(=O)NCCO)cc2F)cn1 [Example 326, 4′-(2-Aminopyrimidin-5-yl)-3′-fluoro-N-(2-hydroxyethyl)-4-(trifluoromethyl)biphenyl-2-sulfonamide] | 29 nM | 3 nM | – | –
9 | CCNS(=O)(=O)c1cc(C(F)(F)F)ccc1-c1ccc(-c2cnc(N)nc2)c(F)c1 [Example 327, 4′-(2-Aminopyrimidin-5-yl)-N-ethyl-3′-fluoro-4-(trifluoromethyl)biphenyl-2-sulfonamide] | 39 nM | 2 nM | – | –
10 | CN1CCN(S(=O)(=O)c2cc(C(F)(F)F)ccc2-c2ccc(-c3cnc(N)nc3)c(F)c2)CC1 [Example 328, 5-{3-Fluoro-2′-[(4-methylpiperazin-1-yl)sulfonyl]-4′-(trifluoromethyl)biphenyl-4-yl}pyrimidin-2-amine] | 119 nM | 15 nM | – | –
11 | Nc1cnc(Sc2ccccc2-c2ccc(-c3cnc(N)nc3)c(F)c2)nc1 [Example 329, 5-{2′-[(5-Aminopyrimidin-2-yl)sulfanyl]-3-fluorobiphenyl-4-yl}pyrimidin-2-amine formate salt] | 66 nM | 12 nM | – | –
12 | Nc1ccnc(Sc2ccccc2-c2ccc(-c3cnc(N)nc3)c(F)c2)n1 [Example 330, 5-{2′-[(4-Aminopyrimidin-2-yl)sulfanyl]-3-fluorobiphenyl-4-yl}pyrimidin-2-amine formate salt] | 88 nM | – | 12 nM | –
13 | Nc1ncc(-c2ccc(-c3ccccc3Sc3ncncc3N)cc2F)cn1 [Example 331, 5-{2′-[(5-Aminopyrimidin-4-yl)sulfanyl]-3-fluorobiphenyl-4-yl}pyrimidin-2-amine formate salt] | 62 nM | 14 nM | – | –
14 | Nc1ncc(-c2ccc(-c3ccccc3Sc3ncccn3)cc2F)cn1 [Example 332, 5-[3-Fluoro-2′-(pyrimidin-2-ylsulfanyl)biphenyl-4-yl]pyrimidin-2-amine hydrochloride] | 125 nM | 65 nM | – | –
15 | Nc1ncc(-c2ccc(-c3ccccc3Sc3cnccn3)cc2F)cn1 [Example 333, 5-[3-Fluoro-2′-(pyrazin-2-ylsulfanyl)biphenyl-4-yl]pyrimidin-2-amine hydrochloride] | 671 nM | 45 nM | – | –
16 | Nc1cc(Sc2ccccc2-c2ccc(-c3cnc(N)nc3)c(F)c2)ncn1 [Example 334, 5-{2′-[(6-Aminopyrimidin-4-yl)sulfanyl]-3-fluorobiphenyl-4-yl}pyrimidin-2-amine formate salt] | 67 nM | 12 nM | – | –
17 | Nc1ncc(-c2ccc(-c3ccccc3Sc3ccnc(N)n3)cc2F)cn1 [Example 335, 4-{[4′-(2-Aminopyrimidin-5-yl)-3′-fluorobiphenyl-2-yl]sulfanyl}pyrimidin-2-amine formate salt] | 37 nM | 2 nM | – | –

Row | SMILES | IC50 [1, 2] | Ki (human FLAP; [3]) | Ki (human FLAP; read-out: FLAP Binding wild type HTRF Ki) | IC50 [1]
18 | Nc1cncc(Sc2ccccc2-c2ccc(-c3cnc(N)nc3)c(F)c2)n1 [Example 336, 5-{2′-[(6-Aminopyrazin-2-yl)sulfanyl]-3-fluorobiphenyl-4-yl}pyrimidin-2-amine formate salt] | 65 nM | 4 nM | – | –
19 | C[Si](C)(C)CCOCSc1ccccc1-c1ccc(-c2cnc(N)nc2)c(F)c1 [Example 340, 5-[3-Fluoro-2′-({[2-(trimethylsilyl)ethoxy]methyl}sulfanyl)biphenyl-4-yl]pyrimidin-2-amine] | – | 104 nM | – | 321 nM
20 | CC(C)(C)NS(=O)(=O)c1ccccc1-c1ccc(-c2ccc(N)nc2)c(F)c1 [Example 342, 4′-(6-Aminopyridin-3-yl)-N-(tert-butyl)-3′-fluoro-[1,1′-biphenyl]-2-sulfonamide] | 117 nM | 2 nM | – | –
21 | CCN(CC)S(=O)(=O)c1ccccc1-c1ccc(-c2ccc(N)nc2)c(F)c1 [Example 343, 4′-(6-Aminopyridin-3-yl)-N,N-diethyl-3′-fluoro-[1,1′-biphenyl]-2-sulfonamide] | 57 nM | 4 nM | – | –
22 | Nc1ccc(-c2ccc(-c3ccccc3S(=O)(=O)N3CCCC3)cc2F)cn1 [Example 344, 5-(3-Fluoro-2′-(pyrrolidin-1-ylsulfonyl)-[1,1′-biphenyl]-4-yl)pyridin-2-amine] | > 10000 nM | 81 nM | – | –
23 | Nc1ccc(-c2ccc(-c3ccccc3S(=O)(=O)N3CCCCC3)cc2F)cn1 [Example 345, 5-(3-Fluoro-2′-(piperidin-1-ylsulfonyl)-[1,1′-biphenyl]-4-yl)pyridin-2-amine] | 259 nM | 28 nM | – | –
24 | Nc1ccc(-c2ccc(-c3ccccc3S(=O)(=O)NC3CCCCC3)cc2F)cn1 [Example 346, 4′-(6-Aminopyridin-3-yl)-N-cyclohexyl-3′-fluoro-[1,1′-biphenyl]-2-sulfonamide] | 95 nM | 5 nM | – | –
25 | CC(C)CNS(=O)(=O)c1ccccc1-c1ccc(-c2ccc(N)nc2)c(F)c1 [Example 348, 4′-(6-Aminopyridin-3-yl)-3′-fluoro-N-iso-butyl-[1,1′-biphenyl]-2-sulfonamide] | 106 nM | 5 nM | – | –
26 | CCC(C)(C)NS(=O)(=O)c1ccccc1-c1ccc(-c2ccc(N)nc2)c(F)c1 [Example 349, 4′-(6-Aminopyridin-3-yl)-3′-fluoro-N-(tert-pentyl)-[1,1′-biphenyl]-2-sulfonamide] | 13 nM | 1 nM | – | –
27 | CC(C)(NS(=O)(=O)c1ccccc1-c1ccc(-c2ccc(N)nc2)c(F)c1)C(F)(F)F [Example 350, 4′-(6-Aminopyridin-3-yl)-3′-fluoro-N-(1,1,1-trifluoro-2-methylpropan-2-yl)-[1,1′-biphenyl]-2-sulfonamide] | 26 nM | 2 nM | – | –
28 | Nc1ccc(-c2ccc(-c3ccccc3S(=O)(=O)N[C@@H](c3ccccc3)C(F)(F)F)cc2F)cn1 [Example 351, (S)-4′-(6-Aminopyridin-3-yl)-3′-fluoro-N-(2,2,2-trifluoro-1-phenylethyl)-[1,1′-biphenyl]-2-sulfonamide] | 297 nM | 17 nM | – | –
29 | CC1(NS(=O)(=O)c2ccccc2-c2ccc(-c3ccc(N)nc3)c(F)c2)CCC1 [Example 353, 4′-(6-Aminopyridin-3-yl)-3′-fluoro-N-(1-methylcyclobutyl)-[, 1′-biphenyl]-2-sulfonamide] | 20 nM | 1 nM | – | –
30 | Nc1ccc(-c2ccc(-c3ccccc3S(=O)(=O)N3CCS(=O)(=O)CC3)cc2F)cn1 [Example 354, 4-((4′-(6-Aminopyridin-3-yl)-3′-fluoro-[1,1′-biphenyl]-2-yl)sulfonyl)thiomorpholine 1,1-dioxide] | 93 nM | 37 nM | – | –
31 | C[C@H](NS(=O)(=O)c1ccccc1-c1ccc(-c2ccc(N)nc2)c(F)c1)C(F)(F)F [Example 355, (S)-4′-(6-Aminopyridin-3-yl)-3′-fluoro-N-(1,1,1-trifluoropropan-2-yl)-[1,1′-biphenyl]-2-sulfonamide] | 29 nM | 5 nM | – | –
32 | Nc1ccc(-c2ccc(-c3ccccc3S(=O)(=O)N3C[C@@H]4C[C@H]3CO4)cc2F)cn1 [Example 356, 5-(2′-((1S,4S)-2-Oxa-5-azabicyclo[2.2.1]heptan-5-ylsulfonyl)-3-fluoro-[1,1′-biphenyl]-4-yl)pyridin-2-amine] | 107 nM | 32 nM | – | –
33 | Nc1ccc(-c2ccc(-c3ccccc3S(=O)(=O)NCC3(O)CNC3)cc2F)cn1 [Example 358, 4′-(6-Aminopyridin-3-yl)-3′-fluoro-N-((3-hydroxyazetidin-3-yl)methyl)-[1,1′-biphenyl]-2-sulfonamide] | > 10000 nM | 55 nM | – | –
